These results are taken from the supplement of paper PMC10307832.

What all share (assay): relative viability (nuclei count vs DMSO), 5 days (fraction); higher = more cells survive
Compound in experiment [1]: C[C@@H](N)c1ccc(C(=O)Nc2ccnc3[nH]ccc23)cc1 + Nc1nc2[nH]cc(CCc3ccc(C(=O)N[C@@H](CCC(=O)O)C(=O)O)cc3)c2c(=O)[nH]1 [Pemetrexed] (partner 0.2 µM)
The method in brief:
(§1)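 Cells from lung cancer lines were seeded into 1536-well plates and, one day later, dosed by pin tool. Treatments were either a single drug or a fixed dose of an anchor drug with five library-drug doses (not always all listed) in √10 steps. After 5 days, nuclei were stained in a one-step fixation (final 0.05% Triton X-100, 1% formaldehyde, 1 ug/ml Hoechst) and counted on 4× images, and relative viability is the treated-to-vehicle nuclei ratio, as the median of duplicate plates.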

Compound in experiment [2]: C1CNCCC1C2=CC(=NN2)C3=CC=NC=C3 + Cc1cc(Nc2cc(N3CCN(C)CC3)nc(Sc3ccc(NC(=O)C4CC4)cc3)n2)n[nH]1 [Tozasertib] (partner 0.1 µM)
The method in brief: as §1

Compound in the experiment “Tanzisertib + Dasatinib”: O[C@H]1CC[C@H](Nc2ncc3nc(Nc4c(F)cc(F)cc4F)n([C@H]4CCOC4)c3n2)CC1 [Tanzisertib] + Cc1nc(Nc2ncc(C(=O)Nc3c(C)cccc3Cl)s2)cc(N2CCN(CCO)CC2)n1 [Dasatinib] (partner 0.075 µM)
The method in brief:
as §1

Compound in experiment [3]: C[C@@H](N)c1ccc(C(=O)Nc2ccnc3[nH]ccc23)cc1 + CC(=O)Nc1cccc(-n2c(=O)n(C3CC3)c(=O)c3c(Nc4ccc(I)cc4F)n(C)c(=O)c(C)c32)c1 [Trametinib] (partner 0.02 µM)
The method in brief: as §1

Take NCI-H520: the relative viability in experiment [1] (first compound 0.04 µM) came to 0.624; in experiment [1] (first compound 0.1265 µM) it was 0.668; in experiment [1] (first compound 0.4 µM), 0.69; in experiment [1] (first compound 1.265 µM), 0.802; in experiment [1] (first compound 4 µM), 0.652; in experiment [2] (first compound 0.08 µM), 0.395. In addition, the relative viability in experiment [2] (first compound 0.8 µM) came out at 0.378; in experiment [2] (first compound 2.53 µM), 0.457; in experiment [2] (first compound 8 µM), 0.457; with Tanzisertib + Dasatinib (first compound 0.08 µM), 0.233; with Tanzisertib + Dasatinib (first compound 0.253 µM), 0.207; in the experiment with Tanzisertib + Dasatinib (first compound 0.8 µM), 0.232. In addition, the relative viability is 0.192 with Tanzisertib + Dasatinib (first compound 2.53 µM); 0.23 with Tanzisertib + Dasatinib (first compound 8 µM); 0.915 in experiment [3] (first compound 0.04 µM); 0.73 in experiment [3] (first compound 0.1265 µM); 0.697 in experiment [3] (first compound 0.4 µM); 0.891 in experiment [3] (first compound 1.265 µM). Besides, the relative viability in experiment [3] (first compound 4 µM) was 0.719.
For NCI-H522, the relative viability in experiment [1] (first compound 0.04 µM) amounted to 0.842; in experiment [1] (first compound 0.1265 µM), 1.09; in experiment [1] (first compound 0.4 µM), 0.956; in experiment [1] (first compound 1.265 µM) it was 1.05; in experiment [1] (first compound 4 µM), 1.01; in experiment [2] (first compound 0.08 µM) it was 0.519. For the same cell line, the relative viability was determined as 0.518 in experiment [2] (first compound 0.8 µM); 0.587 in experiment [2] (first compound 2.53 µM); 0.562 in experiment [2] (first compound 8 µM); 0.937 with Tanzisertib + Dasatinib (first compound 0.08 µM); 0.974 with Tanzisertib + Dasatinib (first compound 0.253 µM); 0.845 with Tanzisertib + Dasatinib (first compound 0.8 µM). Further, the relative viability in the experiment with Tanzisertib + Dasatinib (first compound 2.53 µM) came out at 0.855; in the experiment with Tanzisertib + Dasatinib (first compound 8 µM), 0.884; in experiment [3] (first compound 0.04 µM), 0.798; in experiment [3] (first compound 0.1265 µM), 0.789; in experiment [3] (first compound 0.4 µM) it was 0.66; in experiment [3] (first compound 1.265 µM), 1.02. Moreover, in experiment [3] (first compound 4 µM), the relative viability was found to be 0.745.
Take NCI-H596: the relative viability in experiment [1] (first compound 0.04 µM) is 0.528; in experiment [1] (first compound 0.1265 µM), 0.534; in experiment [1] (first compound 0.4 µM), 0.504; in experiment [1] (first compound 1.265 µM), 0.509; in experiment [1] (first compound 4 µM) it was 0.41; in experiment [2] (first compound 0.08 µM), 0.874. Moreover, the relative viability came out at 1.04 in experiment [2] (first compound 0.8 µM); 0.814 in experiment [2] (first compound 2.53 µM); 1.01 in experiment [2] (first compound 8 µM); 0.673 with Tanzisertib + Dasatinib (first compound 0.08 µM); 0.614 with Tanzisertib + Dasatinib (first compound 0.253 µM); 0.541 with Tanzisertib + Dasatinib (first compound 0.8 µM). Also, the relative viability with Tanzisertib + Dasatinib (first compound 2.53 µM) worked out at 0.53; in the experiment with Tanzisertib + Dasatinib (first compound 8 µM), 0.459; in experiment [3] (first compound 0.04 µM), 0.922; in experiment [3] (first compound 0.1265 µM), 0.826; in experiment [3] (first compound 0.4 µM), 0.906; in experiment [3] (first compound 1.265 µM), 0.752. Also, the relative viability in experiment [3] (first compound 4 µM) was determined as 0.759.
As for NCI-H647, the relative viability stood at 0.199 in experiment [1] (first compound 0.04 µM); 0.2 in experiment [1] (first compound 0.1265 µM); 0.24 in experiment [1] (first compound 0.4 µM); 0.166 in experiment [1] (first compound 1.265 µM); 0.145 in experiment [1] (first compound 4 µM); 0.263 in experiment [2] (first compound 0.08 µM). Moreover, the relative viability came out at 0.413 in experiment [2] (first compound 0.8 µM); 0.297 in experiment [2] (first compound 2.53 µM); 0.263 in experiment [2] (first compound 8 µM); 0.226 with Tanzisertib + Dasatinib (first compound 0.08 µM); 0.201 with Tanzisertib + Dasatinib (first compound 0.253 µM); 0.142 in the experiment with Tanzisertib + Dasatinib (first compound 0.8 µM). In addition, the relative viability worked out at 0.189 with Tanzisertib + Dasatinib (first compound 2.53 µM); 0.149 with Tanzisertib + Dasatinib (first compound 8 µM); 0.387 in experiment [3] (first compound 0.04 µM); 0.47 in experiment [3] (first compound 0.1265 µM); 0.46 in experiment [3] (first compound 0.4 µM); 0.424 in experiment [3] (first compound 1.265 µM). Also, the relative viability in experiment [3] (first compound 4 µM) worked out at 0.385.
On to NCI-H650, for which the relative viability in experiment [1] (first compound 0.1265 µM) came to 0.932; in experiment [1] (first compound 0.4 µM), 0.809; in experiment [1] (first compound 4 µM) it was 0.614; in experiment [2] (first compound 0.08 µM), 0.738; in experiment [2] (first compound 0.8 µM), 0.729; in experiment [2] (first compound 2.53 µM), 0.799. Also, the relative viability worked out at 0.793 in experiment [2] (first compound 8 µM); 0.44 in the experiment with Tanzisertib + Dasatinib (first compound 0.08 µM); 0.463 with Tanzisertib + Dasatinib (first compound 0.253 µM); 0.443 with Tanzisertib + Dasatinib (first compound 0.8 µM); 0.47 in the experiment with Tanzisertib + Dasatinib (first compound 2.53 µM); 0.309 with Tanzisertib + Dasatinib (first compound 8 µM). For the same cell line, the relative viability in experiment [3] (first compound 0.1265 µM) is 0.959; in experiment [3] (first compound 0.4 µM), 0.968; in experiment [3] (first compound 4 µM), 1.03.
As for NCI-H661, the relative viability in experiment [1] (first compound 0.04 µM) was determined as 0.938; in experiment [1] (first compound 0.1265 µM) it was 0.964; in experiment [1] (first compound 0.4 µM) it was 0.943; in experiment [1] (first compound 1.265 µM) it was 0.811; in experiment [1] (first compound 4 µM), 0.639; in experiment [2] (first compound 0.08 µM), 0.38. Further, the relative viability in experiment [2] (first compound 0.8 µM) was found to be 0.367; in experiment [2] (first compound 2.53 µM) it was 0.356; in experiment [2] (first compound 8 µM), 0.345; with Tanzisertib + Dasatinib (first compound 0.08 µM), 1.01; with Tanzisertib + Dasatinib (first compound 0.253 µM), 0.867; in the experiment with Tanzisertib + Dasatinib (first compound 0.8 µM) it was 0.971. The relative viability with Tanzisertib + Dasatinib (first compound 2.53 µM) turned out to be 0.785; in the experiment with Tanzisertib + Dasatinib (first compound 8 µM), 0.868; in experiment [3] (first compound 0.04 µM), 0.48; in experiment [3] (first compound 0.1265 µM), 0.595; in experiment [3] (first compound 0.4 µM), 0.571; in experiment [3] (first compound 1.265 µM), 0.475. Besides, the relative viability in experiment [3] (first compound 4 µM) came out at 0.494.
For NCI-H838, the relative viability was 0.259 in experiment [1] (first compound 0.04 µM); 0.244 in experiment [1] (first compound 0.1265 µM); 0.24 in experiment [1] (first compound 0.4 µM); 0.205 in experiment [1] (first compound 1.265 µM); 0.181 in experiment [1] (first compound 4 µM); 0.314 in experiment [2] (first compound 0.08 µM). Further, the relative viability in experiment [2] (first compound 0.8 µM) was found to be 0.292; in experiment [2] (first compound 2.53 µM), 0.28; in experiment [2] (first compound 8 µM), 0.284; with Tanzisertib + Dasatinib (first compound 0.08 µM), 0.355; in the experiment with Tanzisertib + Dasatinib (first compound 0.253 µM), 0.324; with Tanzisertib + Dasatinib (first compound 0.8 µM), 0.3. Also, the relative viability with Tanzisertib + Dasatinib (first compound 2.53 µM) stood at 0.328; with Tanzisertib + Dasatinib (first compound 8 µM) it was 0.31; in experiment [3] (first compound 0.04 µM), 0.261; in experiment [3] (first compound 0.1265 µM), 0.512; in experiment [3] (first compound 0.4 µM), 0.45; in experiment [3] (first compound 1.265 µM), 0.289. In experiment [3] (first compound 4 µM), the relative viability stood at 0.192.
Consider NCI-H1355, for which the relative viability in experiment [1] (first compound 0.04 µM) was found to be 1.1; in experiment [1] (first compound 0.1265 µM) it was 1.06; in experiment [1] (first compound 0.4 µM), 1.01; in experiment [1] (first compound 1.265 µM), 1.06; in experiment [1] (first compound 4 µM), 1.05; in experiment [2] (first compound 0.08 µM) it was 0.556. Further, the relative viability in experiment [2] (first compound 0.8 µM) was determined as 0.595; in experiment [2] (first compound 2.53 µM), 0.57; in experiment [2] (first compound 8 µM) it was 0.622; with Tanzisertib + Dasatinib (first compound 0.08 µM), 0.757; in the experiment with Tanzisertib + Dasatinib (first compound 0.253 µM) it was 0.757; with Tanzisertib + Dasatinib (first compound 0.8 µM), 0.78. Also, the relative viability was determined as 0.628 with Tanzisertib + Dasatinib (first compound 2.53 µM); 0.707 in the experiment with Tanzisertib + Dasatinib (first compound 8 µM); 0.482 in experiment [3] (first compound 0.04 µM); 0.427 in experiment [3] (first compound 0.1265 µM); 0.446 in experiment [3] (first compound 0.4 µM); 0.433 in experiment [3] (first compound 1.265 µM). In addition, in experiment [3] (first compound 4 µM), the relative viability amounted to 0.393.
